# From PMC9848351, “Discovery of new pyridine-quinoline hybrids as competitive and non-competitive PIM-1 kinase inhibitors with apoptosis induction and caspase 3/7 activation capabilities” (Journal of Enzyme Inhibition and Medicinal Chemistry, 2023)
# Assays:
# PIM-1 kinase [1] = biological target: T1, PIM-1 kinase (Homo sapiens, UniProt P11309); assay: PIM-1 kinase inhibitory activity (Promega kinase assay kit)
# Text: (§1) PIM-1 and PIM-2 kinase inhibitory activity
# (§2) PIM-1 and PIM-2 kinase utilizing PIM-1 and PIM-2 Kinase Assay Kit – Promega Corporation catalog #V4032, following the manufacturer’s instructions 26
# [2] = test system: normal human lung fibroblast Wi-38 cell line; assay: MTT cytotoxicity on normal cells; format: cell-based; conditions: for EC50 / IC50: Homo sapiens; for EC50 / Wi-38 EC100: Wi-38, 72 h, MTT, mean ± SEM; for EC50: 50% cell viability; for Wi-38 EC100: safe dose, 100% cell viability; for IC50: Wi-38, MTT, read-out: IC50 on human lung fibroblasts (Wi-38)
# Summary of the method: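 Wi-38 fibroblasts in DMEM with 10% FBS were seeded at 5x10^3 cells/well, left 24 h to attach, then exposed to serial compound concentrations for 72 h at 37 °C, 5% CO2. MTT was added for 3 h, formazan dissolved in DMSO and absorbance read at 570 nm. IC50 and EC100 (safe dose) were estimated from the concentration series.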
# NFS-60 = assay: Flow cytometric annexin V/PI analysis of apoptosis, NFS-60; format: cell-based, human; conditions: IC50 of compound, 72 h, mean ± SEM
# Protocol: The apoptosis-dependent […] was determined by quantification of annexin-stained apoptotic cells using the FITC signal detector (FL1) against the phycoerythrin emission signal detector (FL2) (Supplementary Page S55). […]
# MTT method was used for assaying cell viability 25. Twenty microliters of 5 mg/ml MTT (Sigma, USA) was added to each well and the plate was incubated at […]
# 37 °C for 3 h. […]
# Graphpad Instat software.
# Determination of the anticancer activity
# Anticancer effect of the above-mentioned compounds was evaluated using four human cancer cell lines. Colon cancer cells (Caco-2) were maintained in DMEM (Lonza, USA) containing 10% FBS while myeloid leukemia cell line (NFS-60), liver cancer cell line (HepG-2) and prostate cancer cell line (PC-3) were cultured in RPMI-1640 (Lonza, USA) supplemented with 10% FBS. All cancer cells (5x10^3 cells/well) were seeded in sterile 96-well plates. After 24h, serial concentrations of the tested compounds and Dox were incubated with four cancer cell lines for 72 h at 37 °C in 5% CO2 incubator. MTT method was done as described above. The Graphpad Instat software was used for calculating the half maximal inhibitory concentration (IC50) values. […]
# Flow cytometric analysis of apoptosis
# Caco-2, PC-3 and NFS-60 cell lines. After trypsinization, the untreated and treated cells were incubated with annexin V/PI for 15 min. Then cells were fixed and incubated with streptavidin-fluorescein (5 µg/mL) for 15 min. The apoptosis-dependent anticancer effect was determined by quantification of annexin-stained apoptotic cells using the FITC signal detector (FL1) against the phycoerythrin emission signal detector (FL2). […]
# [3] = test system: myeloid leukaemia cell line (NFS-60); assay: MTT anticancer activity, NFS-60; format: cell-based; conditions: for IC50: NFS-60, 72 h, MTT, mean ± SEM; for activity against NFS-60 compared to the reference: fold versus doxorubicin IC50
# Summary of the method: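 Cells seeded at 5x10^3/well (Caco-2 in DMEM, others in RPMI-1640, 10% FBS) and exposed to serial compound concentrations for 72 h at 37 °C, 5% CO2, starting 24 h after seeding. MTT (3 h, 37 °C) read at 570 nm after DMSO solubilisation; IC50 calculated from viability.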
# PIM-1 kinase [4] = biological target: T1, PIM-1 kinase; assay: Mechanism of PIM-1 kinase inhibition, Lineweaver–Burk double-reciprocal plot; format: biochemical; design: purchased Promega Corporation #V4032; conditions: for Vmax compared with control: Y-intercept
# PIM-2 kinase = PIM-2 kinase (Homo sapiens, UniProt Q9P1W9); assay: PIM-2 kinase inhibitory activity (Promega kinase assay kit)
# Sequence of PIM-2 kinase (Q9P1W9 whole entry): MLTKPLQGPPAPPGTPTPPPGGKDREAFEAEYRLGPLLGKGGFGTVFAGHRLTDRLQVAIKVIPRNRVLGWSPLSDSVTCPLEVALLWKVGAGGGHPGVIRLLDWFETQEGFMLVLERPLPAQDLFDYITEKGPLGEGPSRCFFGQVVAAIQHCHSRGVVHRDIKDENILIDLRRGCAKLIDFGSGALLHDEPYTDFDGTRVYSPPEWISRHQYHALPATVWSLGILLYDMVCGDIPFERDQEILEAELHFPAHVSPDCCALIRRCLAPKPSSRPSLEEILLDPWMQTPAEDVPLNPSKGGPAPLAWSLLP
# Text: as §1, §2
# T1 sequence (P11309 whole entry): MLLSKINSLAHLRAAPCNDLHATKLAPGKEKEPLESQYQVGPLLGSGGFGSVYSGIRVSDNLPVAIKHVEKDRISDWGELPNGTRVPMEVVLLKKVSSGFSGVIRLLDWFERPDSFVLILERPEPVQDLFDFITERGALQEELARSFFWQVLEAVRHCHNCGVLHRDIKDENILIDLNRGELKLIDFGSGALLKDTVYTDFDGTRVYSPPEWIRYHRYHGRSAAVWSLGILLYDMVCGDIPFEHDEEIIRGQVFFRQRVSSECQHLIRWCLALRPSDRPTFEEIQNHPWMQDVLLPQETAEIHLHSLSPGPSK
SMILES,IC50 (PIM-1 kinase [1]) [µM],EC50 [2] [µM],Wi-38 EC100 [2] [µM],"total percentage of the apoptotic cell population, NFS-60 (NFS-60) [%]",IC50 [3] [µM],activity against NFS-60 compared to the reference [3],mechanism of PIM-1 kinase inhibition (PIM-1 kinase [4]),Vmax compared with control (PIM-1 kinase [4]),IC50 [2] [µM],IC50 (PIM-2 kinase) [µM]
"COc1ccc2[nH]c(=O)c(-c3cc(-c4cccc(O)c4)[nH]c(=O)c3C#N)cc2c1 [13c, 6-(3-Hydroxyphenyl)-4-(6-methoxy-2-oxo-1,2-dihydroquinolin-3-yl)-2-oxo-1,2-dihydropyridine-3-carbonitrile]",7.78,0.0348 ± 0.003,0.0242 ± 0.001,58.83 ± 0.36,0.0088 ± 0.0001,three-fold high,–,–,–,–
"N#Cc1c(-c2cc3ccccc3[nH]c2=O)cc(-c2cccc(O)c2)nc1S [14a, 6-(3-Hydroxyphenyl)-2-mercapto-4-(2-oxo-1,2-dihydroquinolin-3-yl)pyridine-3-carbonitrile]",0.385,0.299 ± 0.004,0.134 ± 0.003,42.005 ± 0.32,0.0232,–,competitive inhibitors,the same Vmax in comparison with control,–,–
"N#Cc1c(-c2cc3cc(Cl)ccc3nc2N2CCOCC2)cc(-c2cccc(O)c2)[nH]c1=O [5b, 4-(6-Chloro-2-morpholin-4-yl-quinolin-3-yl)-6-(3-hydroxyphenyl)-2-oxo-1,2-dihydropyridine-3-carbonitrile]",–,0.171 ± 0.002,0.048 ± 0.0001,54.2 ± 0.47,0.00932 ± 0.004,–,competitive inhibitors,the same Vmax in comparison with control,> 0.099,0.67
"COc1ccc2nc(N3CCOCC3)c(-c3cc(-c4cccc(O)c4)[nH]c(=O)c3C#N)cc2c1 [5c, 6-(3-Hydroxyphenyl)-4-(6-methoxy-2-morpholin-4-yl-quinolin-3-yl)-2-oxo-1,2-dihydropyridine-3-carbonitrile]",–,0.717 ± 0.002,0.361 ± 0.014,51.53 ± 0.09,0.0181 ± 0.001,–,competitive inhibitors,the same Vmax in comparison with control,> 0.099,1.66
"N#Cc1c(-c2cc3ccccc3[nH]c2=O)cc(-c2cccc(O)c2)[nH]c1=O [13a, 6-(3-Hydroxyphenyl)-2-oxo-4-(2-oxo-1,2-dihydroquinolin-3-yl)-1,2-dihydropyridine-3-carbonitrile]",1.27,0.0255 ± 0.004,0.0145 ± 0.0001,59.23 ± 0.04,0.009,three-fold,both competitive and non-competitive inhibitor,reduced in Vmax value,–,–
